Results on 17 compounds are retold here after patent US4252898A.

Values after ≈ are worked out from the molar mass of the structure shown. Read-outs that look alike come from different tables or passages of the source.

Assay [1] concerns NRRL 11459. The assay is described as follows: Antibiotic sensitivity of the producing strain (sensitivity discs on seeded ISP #2 agar). Also: key: +: sensitive (zones of inhibition); -: resistat (no zones of inhibition). It is filed as cell-based, Streptomyces flocculus. The following applies: 30° C., 14 days. As for the experimental part:
(§1) The cell wall sugars are determined using a modification of the procedure of M. Lechevalier, "Chemical Methods as Criteria for the Separation of Actinomycetes Into Genera", workshop sponsored by the subcommittee on Actionomycetes of the American Society of Microbology, Dr. Thoman G. Pridham, Convenor, held at the Institute of Microbology, Rutgurs University, New Brunswick, N.J., 1971. The isomer of diaminopimelic acid is determined using the method of B. Becker Appl. Microbiol., 11 421 ([…]). Amino acid analysis is determined with washed cell wall fragments. Melanoid pigments are determined using ISP #6 (peptone-yeast extract iron agar) and ISP #7 (tyrosine agar). Inhibitors are tested by incorporating varing concentrations of inhibitors into ISP #2 agar plates and streaking the culture on the surface. Starch hydrolysis is determined by testing for the presence of starch with iodine on ISP #4 agar plates. Temperature range, NaCl tolerance, pH range, and antibiotic sensitivity are done using ISP #2 agar medium. The range of temperatures are: 25°, 28°, 30°, 34°, 37°, 40°, 45°, 50°, 55° C. NaCl tolerance is measured by adding NaCl to the agar to equal: 0, 1, 2, 3, 4, 5, 6, 8, 10, 12% and incubating at 30° C. for 7 days. Antibiotic sensitivity is determined using sensitivity discs padded onto seeded agar plates of ISP #2 medium and incubating at 30° C. for 14 days.

Assay [2] concerns S. aureus 3074. The experiment in a line: Agar-dilution test. As to conditions: Staphylococcus aureus.
Assay [3] concerns S. typhosa SA-12. The assay is described as follows: Disc-plate test. The following applies: read-out: Disc-Plate Zone Sizes.
In assay [4] the test system is Peptostreptococcus anaerobius 1428. The assay is described as follows: Susceptibility of anaerobic bacterial isolates, agar dilution. The following applies: 27 hours incubation. Type of assay: cell-based. (Agar dilution tests growth on a series of plates holding different concentrations.)
Assay [5] deals with S. aureus 3.55. The assay is described as follows: Agar-dilution test. As to conditions: Staphylococcus aureus.
Assay [6] has as its system Bacteroides fragilis spp. fragilis 111. The experiment in a line: Susceptibility of anaerobic bacterial isolates, agar dilution. As to conditions: 27 hours incubation. Type of assay: cell-based.
For assay [7], the system named is Clostridium septicum 1128. The description is as above. It is filed as cell-based. As to conditions: 27 hours incubation.
For assay [8], the system named is Bacteroides fragilis ssp. fragilis 1936B. Described as above. Type of assay: cell-based. As to conditions: 27 hours incubation.
Assay [9] concerns Bacteroides melaninogenicus 1856/28. The description is as above. It is filed as cell-based. The following applies: Prevotella intermedia, 27 hours incubation.
In assay [10] the test system is E. coli Ec-14. The assay is described as follows: Disc-plate test. As to conditions: Escherichia coli, EC14, read-out: Disc-Plate Zone Sizes.
The subject of assay [11] is Bacteroides fragilis ssp. fragilis 1877. The experiment in a line: Susceptibility of anaerobic bacterial isolates, agar dilution. The following applies: 27 hours incubation. Type of assay: cell-based.
For assay [12], the system named is S. pyogenes C203. The experiment in a line: Therapy in experimental mouse infections. As to conditions: Streptococcus pyogenes.
The subject of assay [13] is Bacteroides corrodens 1874. The assay is described as follows: Susceptibility of anaerobic bacterial isolates, agar dilution. It is filed as cell-based. As to conditions: Eikenella corrodens, 27 hours incubation.
Assay [14] has as its system Bacteroides fragilis ssp. thetaiotaoimicron 1438. The description is as above. The following applies: 27 hours incubation. Type of assay: cell-based.
For assay [15], the system named is Actinomyces israelii W855. The assay is described as above. Type of assay: cell-based. The following applies: 27 hours incubation.
For assay [16], the system named is Peptococcus prevoti 1281. The description is as above. Type of assay: cell-based. The following applies: 27 hours incubation.
The test system of assay [17] is Group D Streptococcus. The experiment in a line: Disc-plate test. As to conditions: read-out: Disc-Plate Zone Sizes.
Assay [18] concerns gram positive bacteria. The assay is described as follows: Antibacterial activity in standard test procedures.
The test system of assay [19] is Propionibacterium acnes 79. The experiment in a line: Susceptibility of anaerobic bacterial isolates, agar dilution. Type of assay: cell-based. As to conditions: Cutibacterium acnes, 27 hours incubation.
Assay [20] concerns Bacteroides vulgatis 1211. The description is as above. It is filed as cell-based. As to conditions: 27 hours incubation.
Assay [21] deals with S. pneumoniae I. The experiment in a line: Disc-plate test. The following applies: Streptococcus pneumoniae, read-out: Disc-Plate Zone Sizes.
Assay [22] relates to Bacteroides melaninogenicus 2736. The assay is described as follows: Susceptibility of anaerobic bacterial isolates, agar dilution. As to conditions: 27 hours incubation. It is filed as cell-based.
Assay [23] has as its system Fusobacterium necrophorum 6054A. Described as above. Type of assay: cell-based. The following applies: 27 hours incubation.
Assay [24] concerns K. pneumoniae KL-14. The assay is described as follows: Disc-plate test. As to conditions: Klebsiella pneumoniae, KL14, read-out: Disc-Plate Zone Sizes.
For assay [25], the system named is S. pyogenes C203. The assay is described as follows: Disc-plate test. The following applies: Streptococcus pyogenes, C203, read-out: Disc-Plate Zone Sizes.
In assay [26] the test system is Peptococcus asaccharolyticus 1302. The experiment in a line: Susceptibility of anaerobic bacterial isolates, agar dilution. The following applies: Peptoniphilus asaccharolyticus, 27 hours incubation. Type of assay: cell-based.
Assay [27] relates to S. Aureus (3 strains). The experiment in a line: Disc-plate test. As to conditions: Staphylococcus aureus, read-out: Disc-Plate Zone Sizes.
Assay [28] concerns Clostridium perfringens 81. The assay is described as follows: microbe, parasite or virus in culture. The following applies: Clostridium perfringens, 81, 27 h. Type of assay: cell-based.
For assay [29], the system named is Fusobacterium symbiosum 1470. The assay is described as follows: Susceptibility of anaerobic bacterial isolates, agar dilution. It is filed as cell-based. The following applies: 27 hours incubation.
The test system of assay [30] is Eubacterium aerofaciens 1235. The assay is described as above. It is filed as cell-based. As to conditions: Collinsella aerofaciens, 27 hours incubation.
Assay [31] concerns S. aureus 3055. The experiment in a line: Therapy in experimental mouse infections. The following applies: Staphylococcus aureus, 3055, in Mus musculus.
Assay [32] deals with S. faecalis X-66. The experiment in a line: Agar-dilution test. The following applies: Enterococcus faecalis, X66.
Assay [33] concerns P rettgeri PR-2. The experiment in a line: Disc-plate test. As to conditions: read-out: Disc-Plate Zone Sizes.
For assay [34], the system named is Peptostreptococcus intermedium 1264. The assay is described as follows: Susceptibility of anaerobic bacterial isolates, agar dilution. Type of assay: cell-based. The following applies: 27 hours incubation.
Assay [35] has as its system NRRL 11459. The assay is described as follows: Inhibitor sensitivity of the producing strain (inhibitor in ISP #2 agar). Type of assay: cell-based, Streptomyces flocculus. The procedure: as §1
The mark [36] stands for this setting: NRRL11459, NRRL 11459, ISP #2 agar plates, read-out: Inhibitor sensitivity, MIC.

With `CN[C@H](CC(C)C)C(=O)N[C@H]1C(=O)N[C@@H](CC(N)=O)C(=O)N[C@H]2C(=O)N[C@H]3C(=O)N[C@H](C(=O)N[C@H](C(=O)O)c4cc(O)cc(O)c4-c4cc3ccc4O)[C@H](O)c3ccc(c(Cl)c3)Oc3cc2cc(c3O[C@@H]2O[C@H](CO)[C@@H](O)[C@H](O)[C@H]2O[C@H]2C[C@](C)(N)[C@H](O)[C@H](C)O2)Oc2ccc(cc2Cl)[C@H]1O` [Vancomycin], the Antibiotic sensitivity result in assay [1] (30 μg/disc) is recorded as “+”.

Take `CCC1OC(=O)CC(O)C(C)C(OC2OC(C)C(OC3CCC(O)C(C)O3)C(N(C)C)C2O)C(CC=O)CC(C)C(=O)C=CC2(C)OC2C1C` (stereo not shown): the MIC in assay [2] was 2 µg/mL (≈ 2.81 µM); in [4], 2 µg/mL (≈ 2.81 µM); in assay [5], 1 µg/mL (≈ 1.4 µM); in [6], 64 µg/mL (≈ 89.9 µM); in assay [7], 2 µg/mL (≈ 2.81 µM); in assay [8] it was 32 µg/mL (≈ 45 µM). Also, the MIC in assay [9] was determined as 64 µg/mL (≈ 89.9 µM); in [11], 16 µg/mL (≈ 22.5 µM); in [13], 32 µg/mL (≈ 45 µM); in assay [14], 8 µg/mL (≈ 11.2 µM); in [15], 4 µg/mL (≈ 5.62 µM); in assay [16] it was 32 µg/mL (≈ 45 µM). The MIC in [19] worked out at 2 µg/mL (≈ 2.81 µM); in assay [20] it was 8 µg/mL (≈ 11.2 µM); in [22] it was 32 µg/mL (≈ 45 µM); in assay [23], 16 µg/mL (≈ 22.5 µM); in [26], 2 µg/mL (≈ 2.81 µM); in assay [28], 2 µg/mL (≈ 2.81 µM). The MIC worked out at 4 µg/mL (≈ 5.62 µM) in assay [29], 2 µg/mL (≈ 2.81 µM) in assay [30], 4 µg/mL (≈ 5.62 µM) in assay [32] and 16 µg/mL (≈ 22.5 µM) in [34]. Also, the zone of inhibition at 100 µg/disc amounted to 9.9 mm in assay [3]; 10.2 mm in assay [10]; 20 mm in assay [17]; 35 mm in assay [21]; 0 mm in assay [24]; 20 mm in assay [25]. Further, the results for the zone of inhibition at 100 µg/disc in assay [27] and in assay [33] were 24 mm and 8 mm, respectively. In addition, the ED50 in assay [12] worked out at 4.65 mg/kg; in assay [31] it was 5 mg/kg. Besides, the antibacterial activity result in assay [18] is on record as “exhibit antibacterial activity, particularly against gram positive bacteria”.

`CC[C@H]1OC(=O)[C@H](C)[C@@H](O[C@H]2C[C@@](C)(OC)[C@@H](O)[C@H](C)O2)[C@H](C)[C@@H](O[C@@H]2O[C@H](C)C[C@H](N(C)C)[C@H]2O)[C@](C)(O)C[C@@H](C)C(=O)[C@H](C)[C@@H](O)[C@]1(C)O` [Erythromycin]: the Antibiotic sensitivity result in [1] (15 μg/disc) was “+”.

As for `O=[Se](O)O` [Sodium Selenite], the MIC in assay [35] (setting [36]) was found to be 25 µg/mL.

`CCC[C@@H]1C[C@@H](C(=O)N[C@@H]([C@H]2O[C@H](SC)[C@H](O)[C@@H](O)[C@H]2O)[C@@H](C)O)N(C)C1` [Lincomycin]: the Antibiotic sensitivity entry in [1] (2 μg/disc) is “+”.

Take `O.O.O.O=C([O-])[C@H]([O-])[C@@H]([O-])C(=O)[O-].O=C([O-])[C@H]([O-])[C@@H]([O-])C(=O)[O-].[K+].[K+].[Sb+3].[Sb+3]` [Antimony Potassium tartrate]: the “Inhibitor sensitivity, MIC” value in [35] (NRRL 11459, ISP #2 agar plates) came to 250 µg/mL.

For the compound `[N-]=[N+]=[N-]` [Sodium Azide], in assay [35] (NRRL11459, read-out: Inhibitor sensitivity, MIC), the MIC stood at 10 µg/mL.

Consider `CN(C)c1ccc(C(=C2C=CC(=[N+](C)C)C=C2)c2ccc(N(C)C)cc2)cc1` [Crystal Violet], for which the MIC in assay [35] (setting [36]) was 1 µg/mL.

For the compound `O=[Te]([O-])[O-].[K+].[K+]` [Potassium Tellurite], the “Inhibitor sensitivity, MIC” value in assay [35] (NRRL 11459, ISP #2 agar plates) was above 500 µg/mL.

For the compound `[H]/N=C(/N)N[C@H]1[C@H](O)[C@@H](O)[C@H](O[C@@H]2O[C@@H](C)[C@](O)(C=O)[C@H]2O[C@@H]2O[C@@H](CO)[C@H](O)[C@@H](O)[C@@H]2NC)[C@@H](N/C(N)=N\[H])[C@@H]1O` [Streptomycin], the Antibiotic sensitivity result in assay [1] (10 μg/disc) is given as “+”.

Turning to `CC(=O)[O-].[Tl+]` [Thallium Acetate], the “Inhibitor sensitivity, MIC” value in assay [35] was below 10 µg/mL.

On to `O=C([O-])CC(O)(CC(=O)[O-])C(=O)[O-].[Bi+3]` [Bismuth Citrate], for which the “Inhibitor sensitivity, MIC” value in assay [35] (NRRL 11459, ISP #2 agar plates) is above 500 µg/mL.

As for `CC(=O)OCC1=C(C(=O)O)N2C(=O)[C@@H](NC(=O)Cc3cccs3)[C@H]2SC1` [Keflin], the Antibiotic sensitivity result in assay [1] (30 μg/disc) is on record as “-”.

Regarding `C[C@@H]1[C@H](O)[C@@H](C)/C=C/C=C/CC/C=C/C=C/C=C/C=C/C(O[C@H]2O[C@H](C)[C@@H](O)[C@H](N)[C@@H]2O)CC2O[C@](O)(CC(O)C(O)CCC(O)CC(O)CC(O)CC(=O)O[C@H]1C)CC(O)C2C(=O)O` (stereo partly shown) [Nystatin], the Antibiotic sensitivity result in [1] (100 units/disc) is given as “-”.

For the compound Polymixin B, the Antibiotic sensitivity entry in assay [1] (300 units/disc) is “+”.

On to `CN(C)[C@@H]1C(O)=C(C(N)=O)C(=O)[C@@]2(O)C(O)=C3C(=O)c4c(O)cccc4[C@@](C)(O)[C@H]3C[C@@H]12` [Tetracycline], for which, in assay [1] (30 μg/disc), the Antibiotic sensitivity result is on record as “+”.

For `Cc1cc2nc3cc(C)c(N)cc3[n+](-c3ccccc3)c2cc1N.[Cl-]` [Safranin], the “Inhibitor sensitivity, MIC” value in [35] (NRRL 11459, ISP #2 agar plates) is 10 µg/mL.

The term ED50 denotes the midpoint of the dose-response relation. Low readings indicate greater potency, high ones weaker potency.
